According to patent publication US8512769B2, “Valerian extract preparation” (priority 2006, dated 2013):

Test system: male CD rats
Test: Forced swimming test (FST) for antidepressive effect
Assay type: in vivo
Conditions: 1 mg/kg
Text: A more specific test for antidepressive activity is provided by the forced swimming test (FST) developed by Porsolt (Porsolt et al., 1978. Behavioural despair in rats: a new model sensitive to antidepressant treatments, Eur. J. Pharmacol. 47, 379-391).
In a so-called “forced swimming test”, the test animals (rats) are challenged by a stress situation from which they cannot escape by their own efforts. For this purpose, rats are at first left in a water-filled glass cylinder for a time of 15 minutes in a preliminary test (conditioning) one day before the actual test. The filling level is matched to the animals' body weight, so that every animal can support itself with the paws and tail and can keep its nose above water with minimum swimming movements. […] Twenty-four hours after this preliminary test, the test with valerian extract is performed in which the rats are again inserted into the water cylinders and the duration of immobility over a period of 5 minutes is cumulatively recorded.
For testing the valerian formulations on male CD rats, a pretreatment was used for 16 days, and the formulation according to Example 2b) was employed. […] The experiment was recorded by means of a video camera, and the time of immobility of the animals was later detected manually on the screen.

With `CN1C(=O)CN=C(c2ccccc2)c2cc(Cl)ccc21` [Diazepam] as the compound, how does the “Shortening of immobility time as compared to the control group” value read?
The value was 28%.
